This note sets out measurements from paper PMC10976043, “Function and Mechanism of Antiviral Wasp Venom Peptide Protopolybia-MP III and Its Derivatives against HSV-1” (Toxins, 2024).

One data set has as its system HSV-1. Nature of the data set: Plaque formation assay of extracellular HSV-1 particles. Format: cell-based, herpes simplex virus type 1. As to conditions: supernatant in plaque formation assay. As for the experimental part: (A) Amino acid sequence of Protopolybia-MP III. Basic residues are labeled blue, and acidic residues are labeled red. (B,C) Suppression of intracellular HSV-1 infection by Protopolybia-MP III. Cells were preincubated with Protopolybia-MP III at different concentrations or PBS for 1 h and then infected with HSV-1 at a multiplicity of infection (MOI) of 1. After 24 h, the cells were collected. Intracellular HSV-1 RNA was analyzed by qPCR (B), and intracellular HSV-1 ICP0 protein levels were analyzed by Western blotting (C). (D) Suppression of Protopolybia-MP III on extracellular HSV-1 particles. Cells were treated with Protopolybia-MP III at different concentrations or PBS for 24 h, and then the supernatant was collected and evaluated in a plaque formation assay. (E) Cytotoxicity of Protopolybia-MP III to Vero cells. Cells were treated with Protopolybia-MP III or PBS at different concentrations for 24 h, and then the cytotoxicity was determined by CCK8 assay. * p < 0.05. ** p < 0.01. *** p < 0.001.
(§1) Figure 2 Protopolybia-MP III inhibits HSV-1 replication in human cell lines. (A) Cytotoxicities of Protopolybia-MP III to A549 cells, HCEC, and SK-N-MC. Cells were treated with Protopolybia-MP III at different concentrations or PBS for 24 h, and then cytotoxicities were determined by the CCK8 assay. (B,C) Suppression of intracellular HSV-1 infection by Protopolybia-MP III in A549 cells, HCEC, and SK-N-MC. Cells were preincubated with Protopolybia-MP III at different concentrations or PBS for 1 h and then infected with HSV-1 at an MOI of 1. After 24 h, the cells were collected. Intracellular HSV-1 RNA was analyzed by qPCR (B), and intracellular HSV-1 ICP0 protein expression levels were analyzed by Western blotting (C). (D) Inhibition of Protopolybia-MP III on extracellular HSV-1 particles in A549 cells, HCEC, and SK-N-MC. Cells were treated with Protopolybia-MP III at different concentrations or PBS for 24 h, and then the supernatant was collected and evaluated in a plaque formation assay. * p < 0.05. ** p < 0.01. *** p < 0.001.
Vero cells seeded in a 24-well plate at 100% confluence were infected with virus diluent or supernatant. After 1 h of absorption at 37 °C, the supernatant was removed. Cells were washed three times with PBS and replenished with a plaque-covering layer (MEM with 2% FBS and 1.5% carboxymethylcellulose). After an incubation period of approximately 3 days, the cells were stained with 1% crystal violet containing 10% methanol for 0.5 h. Then, the plaques were counted, and the viral titer was calculated according to the plaque number and dilution.

The test system of data set [1] is human neuroepithelial cells (SK-N-MC). Description: CCK8 cytotoxicity assay, SK-N-MC. As to conditions: 40 μg/mL, 24 h. The format is cell-based. How it is done:
as §1
Cells were seeded in a 96-well plate (7000–10,000 cells per well) and cultured at 37 °C overnight. Peptides in a series of concentrations were added to the medium, and cells were then incubated at 37 °C for 24 h. […] Finally, the absorbance was measured at 450 nm using a microplate reader (BioTek, Winooski, VT, USA).
For orientation: Formazan colour is commonly taken as a measure of viable cells.

Ends that are not written are not given here.

Take “INWLKLGKAVIDAL-NH2 [Protopolybia-MP III]”: the “extracellular HSV-1 level versus PBS” value with HSV-1 (A549 cells treated 24 h), with HSV-1 (HCEC treated 24 h) and in the data set on HSV-1 (SK-N-MC treated 24 h) was “lower” in each case. Further, in the data set with HSV-1 (Vero cells treated 24 h), the “extracellular HSV-1 particles (plaques)” value is reported as “fewer plaques”. Besides, the “cytotoxicity to SK-N-MC” value in data set [1] is “almost nontoxic”.
